Source: ChEMBL document CHEMBL3045833, “Synthesis and antifungal activity of novel 7-O-substituted pyridyl-4-methyl coumarin derivatives” (2013)
Values after ≈ are worked out from the molar mass of the structure shown.

How the values were obtained:
Assay type in all cases: functional
[1] = tested on: Cryptococcus neoformans; test: Antifungal activity against Cryptococcus neoformans assessed as growth inhibition after 72 hr by NCCLS microbroth dilution method
[2] = tested on: Candida parapsilosis; test: Antifungal activity against Candida parapsilosis assessed as growth inhibition by NCCLS microbroth dilution method; details: Lodderomyces parapsilosis
[3] = tested on: Aspergillus fumigatus; test: Antifungal activity against Aspergillus fumigatus assessed as growth inhibition by NCCLS microbroth dilution method
[4] = tested on: Candida tropicalis; test: Antifungal activity against Candida tropicalis assessed as growth inhibition by NCCLS microbroth dilution method
[5] = tested on: Candida albicans; test: Antifungal activity against Candida albicans SC5314 assessed as growth inhibition after 24 hr by NCCLS microbroth dilution method; details: SC5314, 24 h
[6] = tested on: Kluyveromyces marxianus; test: Antifungal activity against Kluyveromyces marxianus assessed as growth inhibition by NCCLS microbroth dilution method
[7] = tested on: Candida albicans; test: Antifungal activity against Candida albicans Y0109 assessed as growth inhibition after 24 hr by NCCLS microbroth dilution method; details: Y0109, 24 h
[8] = tested on: Trichophyton rubrum; test: Antifungal activity against Trichophyton rubrum assessed as growth inhibition by NCCLS microbroth dilution method

Structure (SMILES)	MIC80 [1] [µg/mL]	MIC80 [2] [µg/mL]	MIC80 [3] [µg/mL]	MIC80 [4] [µg/mL]	MIC80 [5] [µg/mL]	MIC80 [6] [µg/mL]	MIC80 [7] [µg/mL]	MIC80 [8] [µg/mL]
Cc1cc(=O)oc2cc(Oc3ccc(NC(=O)c4ccncc4)cn3)ccc12	32 (≈ 85.7 µM)	0.25	> 64	16	16 (≈ 42.9 µM)	8	16 (≈ 42.9 µM)	32
Cc1cc(=O)oc2cc(Oc3ccc(NC(=O)/C=C/c4ccccc4)cn3)ccc12	> 64	> 64	> 64	> 64	> 64	16	> 64	4
C[C@@H]1[C@H](O)[C@@H](C)/C=C/C=C/C=C/C=C/C=C/C=C/C=C/[C@H](O[C@@H]2O[C@H](C)[C@@H](O)[C@H](N)[C@@H]2O)C[C@@H]2O[C@](O)(C[C@@H](O)C[C@@H](O)[C@H](O)CC[C@@H](O)C[C@@H](O)CC(=O)O[C@H]1C)C[C@H](O)[C@H]2C(=O)O [AMPHOTERICIN B]	1 (≈ 1.08 µM)	1	1	1	0.25 (≈ 0.271 µM)	0.25	0.25 (≈ 0.271 µM)	1
Cc1cc(=O)oc2cc(Oc3ccc([N+](=O)[O-])cn3)ccc12	64 (≈ 215 µM)	32	> 64	> 64	> 64	> 64	64 (≈ 215 µM)	64
Cc1cc(=O)oc2cc(Oc3ccc(NC(=O)C4CCCCC4)cn3)ccc12	32 (≈ 84.6 µM)	4	> 64	> 64	> 64	> 64	> 64	8
Cc1cc(=O)oc2cc(Oc3ccc(NC(=O)Cc4c[nH]c5ccccc45)cn3)ccc12	8 (≈ 18.8 µM)	> 64	> 64	> 64	> 64	> 64	64 (≈ 150 µM)	16
Cc1cc(=O)oc2cc(Oc3ccc(NC(=O)C(F)(F)F)cn3)ccc12	32 (≈ 87.8 µM)	1	> 64	16	0.25 (≈ 0.686 µM)	32	0.25 (≈ 0.686 µM)	16
Cc1cc(=O)oc2cc(Oc3ccc(NC(=O)c4ccco4)cn3)ccc12	> 64	> 64	> 64	8	32 (≈ 88.3 µM)	16	16 (≈ 44.2 µM)	16
Cc1cc(=O)oc2cc(Oc3ccc(NC(=O)c4ccccc4)cn3)ccc12	16 (≈ 43 µM)	1	> 64	16	16 (≈ 43 µM)	32	4 (≈ 10.7 µM)	8
Cc1cc(=O)oc2cc(Oc3ccc(N)cn3)ccc12	> 64	32	> 64	> 64	> 64	> 64	16 (≈ 59.6 µM)	32
Cc1cc(=O)oc2cc(Oc3ccc(NC(=O)Cc4ccccc4)cn3)ccc12	> 64	> 64	> 64	> 64	> 64	> 64	> 64	> 64
Cc1cc(=O)oc2cc(Oc3ccc(NC(=O)c4ccccn4)cn3)ccc12	32 (≈ 85.7 µM)	32	> 64	16	16 (≈ 42.9 µM)	16	16 (≈ 42.9 µM)	16
Cc1cc(=O)oc2cc(O)ccc12 [HYMECROMONE]	> 64	32	> 64	> 64	> 64	> 64	> 64	32
OC(Cn1cncn1)(Cn1cncn1)c1ccc(F)cc1F [FLUCONAZOLE]	4 (≈ 13.1 µM)	4	> 64	4	0.25 (≈ 0.816 µM)	4	0.25 (≈ 0.816 µM)	1
Cc1cc(=O)oc2cc(Oc3ccc(NC(=O)CC#N)cn3)ccc12	16 (≈ 47.7 µM)	4	> 64	> 64	0.25 (≈ 0.746 µM)	16	16 (≈ 47.7 µM)	0.25
CC(=O)Nc1ccc(Oc2ccc3c(C)cc(=O)oc3c2)nc1	8 (≈ 25.8 µM)	1	> 64	8	0.25 (≈ 0.806 µM)	16	1 (≈ 3.22 µM)	16
Cc1cc(=O)oc2cc(Oc3ccc(NC(=O)C(C)(C)C)cn3)ccc12	32 (≈ 90.8 µM)	32	> 64	32	4 (≈ 11.4 µM)	16	4 (≈ 11.4 µM)	1
Cc1cnc(C(=O)Nc2ccc(Oc3ccc4c(C)cc(=O)oc4c3)nc2)cn1	4 (≈ 10.3 µM)	> 64	> 64	1	16 (≈ 41.2 µM)	4	16 (≈ 41.2 µM)	16
Cc1cc(=O)oc2cc(Oc3ccc(NC(=O)c4cccnc4)cn3)ccc12	16 (≈ 42.9 µM)	32	> 64	32	32 (≈ 85.7 µM)	16	32 (≈ 85.7 µM)	32
Cc1cc(=O)oc2cc(Oc3ccc(NC(=O)CN(C)C)cn3)ccc12	16 (≈ 45.3 µM)	32	> 64	1	32 (≈ 90.6 µM)	32	16 (≈ 45.3 µM)	16
Cc1cc(=O)oc2cc(Oc3ccc(NC(=O)c4cccs4)cn3)ccc12	32 (≈ 84.6 µM)	32	> 64	16	32 (≈ 84.6 µM)	32	16 (≈ 42.3 µM)	16
Cc1cc(=O)oc2cc(Oc3ccc(NC(=O)C4CC4)cn3)ccc12	32 (≈ 95.1 µM)	8	> 64	16	16 (≈ 47.6 µM)	32	> 64	8
Cc1cc(=O)oc2cc(Oc3ccc(NC(=O)c4cnccn4)cn3)ccc12	1 (≈ 2.67 µM)	32	> 64	1	4 (≈ 10.7 µM)	16	4 (≈ 10.7 µM)	0.25
